The test system of assay [1] is human platelets (GFP, PRP). Briefly: Platelet aggregation induced with biochemical agonists (optical aggregometer). The conditions noted are these: 1 mM CaCl2, 5 min, 37° C.; for ability to induce platelet aggregation in GFP: gel-filtered platelets, 32 μM TRAP6, 1 U/mL thrombin, 100 μg/mL collagen, 1 mM arachidonic acid. It counts as cell-based. The method, then:
Platelet aggregation was assessed in PRP or GFP samples employing dual channel optical aggregometer (Model 560-VS, Chrono-Log Corporation, Havertown, PA). […] Platelet count in aggregation mixture was adjusted to 150-200×10^3 plt/μL (in GFP) and to 300-350×10^3 plt/μL (in PRP), final CaCl2 concentration was 1 mM. Aggregation was started by adding mentioned agonists and running for 5 minutes at 37° C. with 1000 rpm stirring. The changes in relative light transmittance were recorded, and arbitrary values for each aggregation curve were calculated with Aggrolink software (Chrono-Log Corporation, Havertown, PA).
(§1) To define the molecular signature of SMPA, biochemical versus mechanical platelet activation by uniform shear stress applied in the hemodynamic shearing device (HSD) was compared. […] Mechanical platelet activation was obtained via GFP exposure to uniform continuous shear in HSD as described above in “Shear-mediated platelet activation”. Physiologically relevant shear stress levels (30 and 50 dynes/cm^2) close to those found in blood stream vs. sub-pathological shear conditions (70 dynes/cm^2) existing within MCS were examined. Initially, the P-selectin exposure, as a known marker of platelet activation and α-granule secretion, was detected employing mono immunostaining and quantified by flow cytometry. Those cells showing high fluorescence intensity (≥3000 AU) were gated as P-selectin positive platelets and marked as sub-population P6 (FIGS. 2A-2G).

Assay [2] relates to P-selectin exposure on gel-filtered platelets. Description: Flow cytometry of platelet P-selectin exposure (anti-CD62P-APC) after biochemical activation. It counts as cell-based, human. The conditions noted are these: 2.5 mM CaCl2, room temperature; for number of CD62P-positive cells, % of whole platelet population: GFP 2×10^4 platelets/μL, 10 uM ADP, 10 μg/mL epinephrine, 1 mM arachidonic acid, gate ≥3000 AU; for P-selectin exposure (in words): GFP, 32 μM TRAP6, 1 U/mL thrombin, 100 μg/mL collagen. The method, then:
(§2) To induce biochemical activation, GFP (2×10^4 platelets/μL, final volume 100 μL) were treated with biochemical agonists mentioned above in presence of 2.5 mM CaCl2), mixed gently and incubated undisturbed for 15 minutes at room temperature. Then APC-conjugated anti-CD62P (clone Psel.KO2.3, eBioscience, San Diego, CA) and FITC-labeled annexin V (eBioscience, San Diego, CA) were added to indicate platelet a-granule secretion and phosphatidylserine externalization (PSE) during platelet biochemical activation. Integrin GP αIIbβ3 activation was evaluated by double-staining technique. […] A pair of antibodies against αIIbβ3 was added simultaneously into a test tube containing activated platelet sample to identify the number of platelets exposing activated αIIbβ3 among all αIIbβ3-expressing platelet population. Cells were incubated with annexin V or antibodies for 30 minutes at room temperature in the dark, washed by centrifugation (5000 rpm, 5 min), resuspended in 1 ml of Ca-free 0.05 M phosphate buffer (pH-7.4) and transferred in polystyrene tube for flow cytometry. Flow cytometry analysis was performed within 15 minutes after sample preparation.
(§3) Flow cytometry was performed on FACS Canto II (BD Biosciences, San Jose, CA) using the following configurations: HeNe red laser (633 nm) and 660/20 filter—for APC, solid state blue laser (488 nm) and 530/30 filter—for FITC-stained cell detection. Single platelets were distinguished from their aggregates and microparticles based on their characteristic forward versus side scatter. […] BD FACSDiva™ software was applied to analyze flow cytometry data statistics (percentage of marker-positive platelets among whole platelet population and their median fluorescence intensity).
as §1
Background: Flow cytometry measures light scatter and fluorescence of single cells or particles in a stream.

In assay [3] the test system is integrin GPIIb/IIIa activation on gel-filtered platelets. Description: Flow cytometry of integrin GPIIb/IIIa activation (anti-CD41/CD61-FITC PAC-1 and anti-CD41-APC double staining). It counts as cell-based, human. The conditions noted are these: for number of platelets presenting activated GPIIb/IIIa (CD41/CD61-positive among CD41-positive) / elevation of number of platelets presenting activated GPIIb/IIIa as compared with intact platelets: GFP, 10 uM ADP, 1 U/mL thrombin; for number of platelets presenting activated GPIIb/IIIa (CD41/CD61-positive among CD41-positive): 2.5 mM CaCl2, gate ≥4000 AU, intact platelets 6.7±2.9%; for number of CD41/CD61-positive platelets following GFP stimulation (in words): 2.5 mM CaCl2, vs intact platelets. The protocol:
as §2, §3
To assess the magnitude of integrin GPIIb/IIIa activation after platelet stimulation with constant shear or biochemical agonists, the number of whole GPIIb/IIIa-positive platelet population was compared with the number of those presenting activated form of the integrin on their membrane. For this purpose, double staining with APC-conjugated anti-CD41 and FITC-conjugated anti-CD41/CD61 was applied as describe in the methods described above. Among parental CD41-positive platelet population, CD41/CD61-positive cells were distinguished based on their FITC-fluorescence intensity level (≥4000 AU) and assumed as presenting activated form of integrin GPIIb/IIIa on their surface (FIGS. 4A-4G, sub-population P3).

For assay [4], the system named is phosphatidylserine externalization on gel-filtered platelets. Briefly: Annexin V binding assay of phosphatidylserine externalization (flow cytometry). The format is cell-based, human. The conditions noted are these: GFP, 2.5 mM CaCl2; for annexin V binding after platelet stimulation (in words): agonist taken alone. The method, then:
as §2, §3
To detect phosphatidylserine exposure, an annexin V binding assay is extensively utilized. The principle of the assay is based on the high affinity binding of protein annexin V labeled with fluorescence dye to phosphatidylserine on platelet surface with the aid of Ca2+ ions (Demchenko, Cytotechnology, vol. 65, no. 2, pp. 157-72, March (2013)).

The subject of assay [5] is procoagulant activity of gel-filtered platelets. Description: Prothrombinase-based Platelet Activation State (PAS) assay, thrombin generation on platelet surface. The format is cell-based, human. The conditions noted are these: platelets 5×10^3 cells/μL, 200 nM acetylated prothrombin, 100 pM factor Xa, 37° C., 10 minutes. An excerpt: PAS was quantified by chemically modified prothrombinase-based chromogenic assay developed by Jesty and Bluestein (Jesty & Bluestein, Anal. Biochem. (1999), Jesty et al., Platelets, vol. 14, no. 3, pp. 143-149, 2003). The assay measures the rate of acetylated thrombin generation from acetylated proenzyme cleavage by factor Xa in presence of activated platelets. […] Activated, but not resting, platelets present factor Va and negatively charged phospholipids (mostly phosphatidylserine) on their surface for prothrombinase complex formation and thrombin generation. Thus, the rate of enzymatic cleavage of chromogenic substrate Chromozym TH (Tosyl-Gly-Pro-Arg-4-nitranilide acetate, Roche Diagnostics GmbH, Mannheim, Germany) by acetylated thrombin reflects the value of initial activation state of the platelets tested (Jesty & Bluestein, Anal. Biochem. (1999), Rubenstein et al., Circulation, (2004)).
Platelet samples preliminary stimulated with biochemical activators, shear or sonication (platelet count—5×10^3 cells/μL) were incubated with 200 nM acetylated prothrombin, 100 pM factor Xa (Enzyme Research Laboratories, South Bend, IN), 5 mM CaCl2) in a volume of 100 μL 20 mM HEPES, pH 7.4, containing 130 mM NaCl and 0.1% BSA at 37° C. for 10 minutes. Then, 10 μL of each timed sample was measured for thrombin activity in microplate wells, containing 0.3 mM Cromozyme TH, 3 mM EDTA in 20 mM HEPES, pH 7.4, containing 130 mM NaCl and 0.1% BSA. Kinetic change of absorbance (λ=405 nm) was measured for 7 minutes at room temperature using microplate reader Versa MAX (Molecular Devices Corp., Sunnyvale, CA). The value of PAS or initial rate of thrombin generation was calculated as a slope of kinetic curve (ΔA405/min) with SoftMax Pro6 Software.

The subject of a further assay is human platelets. The conditions noted are these: not sensitive to cyclooxygenase inhibitors; cited from earlier work.

Take `Nc1ncnc2c1ncn2[C@@H]1O[C@H](COP(=O)(O)OP(=O)(O)O)[C@@H](O)[C@H]1O` [ADP, Adenosine DiPhosphate]: the “ability to induce platelet aggregation in PRP” value in assay [1] (platelet-rich plasma, 10 uM ADP, 10 μg/mL epinephrine) was “induce platelet aggregation”. In addition, the “number of CD62P-positive cells, % of whole platelet population” value in assay [2] is 46.8±3.9%. Moreover, in assay [3], the “number of platelets presenting activated GPIIb/IIIa (CD41/CD61-positive among CD41-positive)” value is 28.0±8.9% and the “elevation of number of platelets presenting activated GPIIb/IIIa as compared with intact platelets” value turned out to be 4.2 times. In assay [4], the “annexin V binding after platelet stimulation (in words)” value (shortened to “annexin V binding”) was “No annexin V binding”. Further, the “thrombin generation / amidolytic activity in presence of stimulated platelets (PAS assay, in words)” value in assay [5] is listed as “no amidolytic activity was detected”.

Consider `CCCCC/C=C\C/C=C\C/C=C\C/C=C\CCCC(=O)O` [arachidonic acid], for which, in assay [1], the “ability to induce platelet aggregation in GFP” value (“ability … in GFP” for short) is given as “induce platelet aggregation”. The “number of CD62P-positive cells, % of whole platelet population” value in assay [2] came out at 52.1±6.8%. In addition, the “number of CD41/CD61-positive platelets following GFP stimulation (in words)” value (“number … (in words)” for short) in assay [3] is reported as “not significantly elevated”. The “number of annexin V-positive platelets, % of whole platelet population” value in assay [4] (arachidonic acid 1 mM) was determined as 52.12±6.79%. In assay [5], the “thrombin generation / amidolytic activity in presence of stimulated platelets (PAS assay, in words)” value was “comparable with sonicated GFP sample”. Moreover, the “AA concentration required for Ca^2+ influx” value in the assay with human platelets is 60 µM.

As to `CNC[C@H](O)c1ccc(O)c(O)c1` [epinephrine], the “number of CD62P-positive cells, % of whole platelet population” value in assay [2] was determined as 18.6±1.5%. Also, the “number … (in words)” value in assay [3] is “not significantly elevated”. In assay [4], the “annexin V binding” value is reported as “No annexin V binding”. Further, the “thrombin generation / amidolytic activity in presence of stimulated platelets (PAS assay, in words)” value in assay [5] is recorded as “no amidolytic activity was detected”.

In the case of collagen, in assay [1], the “ability … in GFP” value is “induce platelet aggregation”. Moreover, the “P-selectin exposure (in words)” value in assay [2] is given as “failed to induce high P-selectin exposure”. Besides, the “number … (in words)” value in assay [3] is on record as “not significantly elevated”. Further, the “annexin V binding” value in assay [4] is listed as “No annexin V binding”. The “thrombin generation / amidolytic activity in presence of stimulated platelets (PAS assay, in words)” value in assay [5] is “no amidolytic activity was detected”.

As for thrombin, the “ability … in GFP” value in assay [1] is reported as “induce platelet aggregation”. In addition, the “P-selectin exposure (in words)” value in assay [2] is listed as “dramatic augmentation of P-selectin exposure”. Also, in assay [3], the “number of platelets presenting activated GPIIb/IIIa (CD41/CD61-positive among CD41-positive)” value is recorded as 63.5±10.2% and the “elevation of number of platelets presenting activated GPIIb/IIIa as compared with intact platelets” value was 9.6 times. Also, in assay [4], the “annexin V binding” value is listed as “No annexin V binding”.

“thrombin receptor activating peptide-6 [TRAP-6]”: the “ability … in GFP” value in assay [1] was “induce platelet aggregation”. The “P-selectin exposure (in words)” value in assay [2] is given as “dramatic augmentation of P-selectin exposure”. Further, in assay [3], the “number … (in words)” value is “not significantly elevated”. For the same compound, the “annexin V binding” value in assay [4] is given as “No annexin V binding”. Besides, the “thrombin generation / amidolytic activity in presence of stimulated platelets (PAS assay, in words)” value in assay [5] is recorded as “no amidolytic activity was detected”.

The record behind these values is patent US12606797B2, “Methods of detection of mechanically-activated platelet activation and uses thereof” (Arizona Board of Regents on Behalf of the University of …, priority 2018, dated 2026).
